Data as given in patent US10017481B2, “Conformationally constrained, fully synthetic macrocyclic compounds” (POLYPHOR AG, priority 2012, dated 2018).
Each block holds one compound with its values, some of them ahead of it.

Legend:
Type in all cases: in vitro ADME
[1] = Metabolic stability assay, CD-1 mouse microsomes; conditions: CD-1 mouse microsomes, 10 μM, 37° C.; for half-life at 10 μM: both sexes, 1 mg/ml protein, read-out: Metabolic Stability T ½ [min] mouse/(rat)
Procedure: (§1) 5. Plasma and Metabolic Stability Assays
(§2) Example compounds were dissolved in DMSO/H2O 90:10 to a final concentration of 10 mM for plasma stability determination and metabolic stability determination.
(§3) The assays were conducted according to literature precedents (F. P. Guengerich, Analysis and Characterization of Enzymes; in: Principles and Methods of Toxicology, A. W. Hayes (Ed.) Raven Press: New York, 1989, 777-813; R. Singh et al., In vitro metabolism of a potent HIV-protease inhibitor (141W94) using rat, monkey and human liver S9, Rapid Commun. Mass Spectrom. 1996, 10, 1019-1026).
(§4) Metabolic Stability Assay
(§5) Microsomes from a human 50 donor mixed gender pool and 1:1 mixtures of microsomes from CD-1 mouse single-gender pools are purchased from Celsis (Belgium). The enzymatic reaction is performed in a buffer containing an NADPH regeneration system and microsomes with the following end concentrations: 100 mM potassium phosphate buffer (all from Sigma), 1 mg/mL glucose-6-phosphate, 1 mg/mL β-nicotinamide adenine dinucleotide phosphate (NADP), 0.65 mg/mL magnesium chloride, 0.8 units/mL of glucose-6-phosphate dehydrogenase (prediluted with 5 mM citrate buffer), 10 μM compound and 1 mg/ml microsomal protein. Compounds are incubated at 37° C. in duplicates and samples are taken after 0, 5, 10, 20 and 60 minutes. After acetonitrile precipitation (3 volumes), shaking (2 minutes, 600 rpm) followed by centrifugation (10 minutes, 3200 g), the supernatant is dried reconstituted in the suitable solvent (cf. Table 33) and analyzed by HPLC/MS/MS. Metabolic turnover is expressed in % of the initial 0 minutes value and half life T½ (min) is calculated. Verapamil for human and propranolol for mouse are used as reference and are assayed with every experimental set.

[2] = Plasma stability assay, CD-1 mouse plasma; conditions: for Plasma Stability 240 min mouse/(rat) [% remain.]: CD-1 mouse plasma, 10 μM, 37° C.; for half-life at 10 μM: both sexes, CD-1, mouse, plasma
Procedure: (§6) 5. Plasma and Metabolic Stability Assays Example compounds were dissolved in DMSO/H2O 90:10 to a final concentration of 10 mM for plasma stability determination and metabolic stability determination. The assays were conducted according to literature precedents (F. P. Guengerich, Analysis and Characterization of Enzymes; in: Principles and Methods of Toxicology, A. W. Hayes (Ed.) Raven Press: New York, 1989, 777-813; R. Singh et al., In vitro metabolism of a potent HIV-protease inhibitor (141W94) using rat, monkey and human liver S9, Rapid Commun. Mass Spectrom. 1996, 10, 1019-1026). Plasma Stability Assay Human plasma (Blutspendedienst SRK, Basel) and CD-1 mouse plasma (mixed gender pool >50 animals, Innovative Research, Calif., USA) are both sodium citrate stabilized. The assay is performed in triplicates at 10 μM compound concentration and 37° C. Samples are taken at 0, 15, 30, 60, 120 and 240 minutes and stopped by precipitation with 3 volumes of acetonitrile/formic acid 98:2 and shaking (2 minutes, 600 rpm) followed by filtration (−20 mm Hg). The filtrate is collected. The filtrate (100 μL) is evaporated and reconstituted in the suitable solvent (cf. Table 33) to be analyzed by HPLC/MS/MS. The resulting peak area counts are expressed in percent of the 0 value and used to determine the endpoint stability in % and the half life T in minutes. In order to monitor assay integrity the degradation of propantheline is assayed with every experimental set.

[3] = Plasma stability assay, human plasma; conditions: for Plasma Stability 240 min hum [% remain.]: human plasma, 10 μM, 37° C.; for half-life at 10 μM: human, plasma
Procedure: as §6

[4] = Metabolic stability assay, human liver microsomes; conditions: human microsomes, 10 μM, 37° C.; for half-life at 10 μM: both sexes, liver microsomes, 1 mg/ml protein, read-out: Metabolic Stability T ½ [min] hum
Procedure: as §1, §2, §3, §4, §5

Structure (SMILES): C[C@H]1COc2cccc(c2)-c2cccc(c2)C(=O)N(C)[C@H](C(=O)NC2CC2)CCC(=O)N1 [Ex. 79, (9S,14S)-N-cyclopropyl-9,15-dimethyl-11,16-dioxo-7-oxa-10,15-diazatricyclo[15.3.1.1^2,6]docosa-1(21),2(22),3,5,17,19-hexaene-14-carboxamide]
Metabolic Stability 60 min mouse/(rat) [% remain.] [1]: 73 % remain. | half-life at 10 μM [1]: > 60 min | Plasma Stability 240 min mouse/(rat) [% remain.] [2]: 60 % remain. | half-life at 10 μM [2]: > 4 h | Plasma Stability 240 min hum [% remain.] [3]: 100 % remain. | half-life at 10 μM [3]: > 4 h | half-life at 10 μM [4]: > 60 min | Metabolic Stability 60 min hum [% remain.] [4]: 95 % remain.

Structure (SMILES): CC(C)CNC(=O)[C@@H]1CCC(=O)N[C@@H](C)COc2cccc(c2)-c2cccc(c2)C(=O)N1C [Ex. 80, (9S,14S)-N-isobutyl-9,15-dimethyl-11,16-dioxo-7-oxa-10,15-diazatricyclo [15.3.1.1^2,6]docosa-1(21),2(22),3,5,17,19-hexaene-14-carboxamide]
Metabolic Stability 60 min mouse/(rat) [% remain.] [1]: 19 % remain. | half-life at 10 μM [1]: 24 min | Plasma Stability 240 min mouse/(rat) [% remain.] [2]: 84 % remain. | half-life at 10 μM [2]: > 4 h | Plasma Stability 240 min hum [% remain.] [3]: 90 % remain. | half-life at 10 μM [3]: > 4 h | half-life at 10 μM [4]: 19 min | Metabolic Stability 60 min hum [% remain.] [4]: 6 % remain.

Structure (SMILES): C[C@H]1COc2cccc(c2)-c2cccc(c2)C(=O)N(C)[C@H](C(=O)NCCO)CCC(=O)N1 [Ex. 81, (9S,14S)-N-(2-hydroxyethyl)-9,15-dimethyl-11,16-dioxo-7-oxa-10,15-diazatricyclo[15.3.1.1^2,6]docosa-1(21),2(22),3,5,17,19-hexaene-14-carboxamide]
Metabolic Stability 60 min mouse/(rat) [% remain.] [1]: 97 % remain. | half-life at 10 μM [1]: > 60 min | Plasma Stability 240 min mouse/(rat) [% remain.] [2]: 100 % remain. | half-life at 10 μM [2]: > 4 h | Plasma Stability 240 min hum [% remain.] [3]: 88 % remain. | half-life at 10 μM [3]: > 4 h | half-life at 10 μM [4]: > 60 min | Metabolic Stability 60 min hum [% remain.] [4]: 100 % remain.

Second part, the compound after the results:

Metabolic Stability 60 min mouse/(rat) [% remain.] [1]: 96 % remain. | half-life at 10 μM [1]: > 60 min | Plasma Stability 240 min mouse/(rat) [% remain.] [2]: 93 % remain. | half-life at 10 μM [2]: > 4 h | Plasma Stability 240 min hum [% remain.] [3]: 85 % remain. | half-life at 10 μM [3]: > 4 h | half-life at 10 μM [4]: > 60 min | Metabolic Stability 60 min hum [% remain.] [4]: 85 % remain.
Structure (SMILES): C[C@H]1COc2cccc(c2)-c2cccc(c2)C(=O)N(C)[C@H](C(=O)NCC(=O)O)CCC(=O)N1 [Ex. 83, 2-({[(9S,14S)-9,15-dimethyl-11,16-dioxo-7-oxa-10,15-diazatricyclo[15.3.1.1^2,6]docosa-1(21),2(22),3,5,17,19-hexaen-14-yl]carbonyl}amino)acetic acid]

Metabolic Stability 60 min mouse/(rat) [% remain.] [1]: 71 % remain. | half-life at 10 μM [1]: > 60 min | Plasma Stability 240 min mouse/(rat) [% remain.] [2]: 56 % remain. | half-life at 10 μM [2]: > 4 h | Plasma Stability 240 min hum [% remain.] [3]: 99 % remain. | half-life at 10 μM [3]: > 4 h | half-life at 10 μM [4]: > 60 min | Metabolic Stability 60 min hum [% remain.] [4]: 97 % remain.
Structure (SMILES): C[C@H]1COc2cccc(c2)-c2cccc(c2)C(=O)N(C)[C@H](C(=O)NCCN(C)C)CCC(=O)N1 [Ex. 84, (9S,14S)-N-[2-(dimethylamino)ethyl]-9,15-dimethyl-11,16-dioxo-7-oxa-10,15-diazatricyclo[15.3.1.1^2,6]docosa-1(21),2(22),3,5,17,19-hexaene-14-carboxamide]

Metabolic Stability 60 min mouse/(rat) [% remain.] [1]: 80 % remain. | half-life at 10 μM [1]: > 60 min | Plasma Stability 240 min mouse/(rat) [% remain.] [2]: 88 % remain. | half-life at 10 μM [2]: > 4 h | Plasma Stability 240 min hum [% remain.] [3]: 100 % remain. | half-life at 10 μM [3]: > 4 h | half-life at 10 μM [4]: > 60 min | Metabolic Stability 60 min hum [% remain.] [4]: 100 % remain.
Structure (SMILES): C[C@H]1COc2cccc(c2)-c2cccc(c2)C(=O)N(C)[C@H](C(=O)NCCCN2CCCC2)CCC(=O)N1 [Ex. 85, (9S,14S)-9,15-dimethyl-11,16-dioxo-N-[3-(1-pyrrolidinyl)propyl]-7-oxa-10,15-diazatricyclo[15.3.1.1^2,6]docosa-1(21),2(22),3,5,17,19-hexaene-14-carboxamide]
